In ChEMBL document CHEMBL1135712, “Structure-activity relationships for pyrido-, imidazo-, pyrazolo-, pyrazino-, and pyrrolophenazinecarboxamides as topoisomerase-targeted anticancer agents” (J Med Chem, 2002):

How the values were obtained:
[1] = Ratio of IC50 in the cell -amsacrine-resistant Jurkat (JL A) / JL C; assay type: functional
NCI-H69 [2] = test: Inhibitory activity against parental human small cell lung carcinoma cell line (H69P); assay type: functional, cell-based
[3] = Ratio of IC50 in the cell -doxorubicin-resistant Jurkat (JL D) / JL C; assay type: functional
NCI-H69 [4] = test: Inhibitory activity against drug resistant H69/LX4 line overexpressing P-glycoprotein; assay type: functional, cell-based; conditions: Homo sapiens
[5] = Inhibitory concentration to reduce cell number to 50% in a panel of cultured, wild type human Jurkat leukemia (JL C) cells.; assay type: functional, cell-based
P388 = test: Inhibitory activity against murine P388 leukemia (P388) cells.; assay type: functional, cell-based; conditions: Mus musculus
[6] = tested on: Lewis lung carcinoma cell line; test: Inhibitory concentration to reduce cell number to 50% in a panel of cultured, murine Lewis lung carcinoma (LL) cells.; assay type: functional, cell-based; conditions: Mus musculus
P388 (Mus musculus) = test: Inhibitory concentration to reduce cell number to 50% in a panel of cultured, murine P388 leukemia (P388) cells.

Structure (SMILES) | Ratio [1] | IC50 (NCI-H69 [2]) | Ratio [3] | IC50 (NCI-H69 [4]; read-out: IC50) | IC50 [5] | IC50 (P388) | IC50 [6] | IC50 (P388 (Mus musculus)) | IC50 (NCI-H69 [4])
CN(C)CCNC(=O)c1cccc2nc3ccc4ccccc4c3nc12 | 0.8 | 67 nM | 0.9 | 1.9 nM | 93 nM | 37 nM | 23 nM | – | –
COc1cccc2c1ccc1nc3cccc(C(=O)NCCN(C)C)c3nc12 | – | 35 nM | – | 1.4 nM | – | 9.4 nM | – | – | –
CN(C)CCNC(=O)c1cccc2nc3ccc4cnn(C)c4c3nc12 | 1 | 109 nM | 1.1 | 0.92 nM | 44 nM | 8.4 nM | 5.9 nM | – | –
COc1cccc2c1ccc1nc3cccc(C(=O)N[C@H](C)CN(C)C)c3nc12 | – | 23 nM | – | 1.2 nM | – | 10 nM | – | – | –
CN(C)CCNC(=O)c1cccc2nc3ccc4cnccc4c3nc12 | 3 | 88 nM | 2.8 | 0.64 nM | 28 nM | 5.6 nM | 6.4 nM | – | –
CN(C)CCNC(=O)c1cccc2nc3ccc4c(cnn4C)c3nc12 | 0.8 | 130 nM | 0.8 | 1.2 nM | 98 nM | – | 25 nM | 59 nM | –
CN(C)CCNC(=O)c1cccc2nc3ccc4cccnc4c3nc12 | 0.7 | 294 nM | 0.9 | 2.1 nM | 317 nM | – | 89 nM | – | –
CN(C)CCNC(=O)c1cccc2nc3ccc4c(O)ccnc4c3nc12 | – | 2100 nM | – | > 4 nM | – | 2700 nM | – | – | –
CN(C)CCNC(=O)c1cccc2nc3ccc4ccncc4c3nc12 | 0.8 | 116 nM | 1 | 1.3 nM | 79 nM | 16 nM | 11 nM | – | –
CN(C)CCNC(=O)c1cccc2nc3ccc4nccnc4c3nc12 | 1 | 234 nM | 0.9 | 1.5 nM | 165 nM | 85 nM | 54 nM | – | –
COc1ccnc2c1ccc1nc3cccc(C(=O)NCCN(C)C)c3nc12 | – | 123 nM | – | 3.2 nM | – | – | – | – | –
CN(C)CCNC(=O)c1cccc2nc3ccccc3nc12 | 0.8 | – | 1 | – | 2500 nM | 1100 nM | 1850 nM | – | –
COc1nccc2c1ccc1nc3cccc(C(=O)N[C@H](C)CN(C)C)c3nc12 | – | 24 nM | – | 1.2 nM | – | – | – | – | –
COc1nccc2c1ccc1nc3cccc(C(=O)NCCN(C)C)c3nc12 | 0.7 | 21 nM | 0.7 | 1.2 nM | 17 nM | 14 nM | 2.4 nM | – | –
CN(C)CCNC(=O)c1cccc2nc3ccc4c(O)nccc4c3nc12 | – | 133 nM | – | 1.05 nM | – | 31 nM | – | – | –
CN(C)CCNC(=O)c1cccc2nc3ccc4c(ccn4C)c3nc12 | – | 183 nM | – | 1.7 nM | – | 220 nM | – | – | –
CN(C)CCNC(=O)c1cccc2nc3ccc4[nH]cnc4c3nc12 | 0.8 | 183 nM | 0.9 | 5.2 nM | 159 nM | 300 nM | 41 nM | – | –
COc1nccc2c1ccc1nc3cccc(C(=O)N[C@H](CO)CN(C)C)c3nc12 | – | 24 nM | – | 1.2 nM | – | – | – | – | –
CN(C)CCNC(=O)c1cccc2nc3ccc4c[nH]nc4c3nc12 | 1.1 | 524 nM | – | 0.95 nM | 194 nM | 98 nM | 66 nM | – | –
CN(C)CCNC(=O)c1cccc2nc3ccc4ncccc4c3nc12 | 0.8 | 124 nM | 0.7 | 1.2 nM | 74 nM | 42 nM | 20 nM | – | –
CN(C)CCNC(=O)c1cccc2nc3ccc4[nH]ncc4c3nc12 | 4.2 | 107 nM | 4.7 | 4.5 nM | 21 nM | 6.8 nM | 4.1 nM | – | –
COc1cccc2c1C(=O)c1c(O)c3c(c(O)c1C2=O)C[C@@](O)(C(=O)CO)C[C@@H]3O[C@H]1C[C@H](N)[C@H](O)[C@H](C)O1 [DOXORUBICIN] | – | – | – | – | 9.6 nM | – | – | – | 137 nM
